According to US9890185B2, “Urea derivatives useful as kinase inhibitors” (Respivert Limited, priority 2013, dated 2018):

How the values were obtained:
[1] = target: GSK 3α (Homo sapiens (Human), UniProt P49840); assay: GSK 3α enzyme inhibition (FRET, Z-LYTE, Method 2); type: biochemical; settings: read-out: IC50 Values for Enzyme Inhibition, GSK3α
Protocol: The enzyme inhibitory activities of compounds disclosed herein are determined by FRET using synthetic peptides labelled with both donor and acceptor fluorophores (Z-LYTE, Invitrogen Ltd., Paisley, UK).
The following two assay variants can be used for determination of GSK 3α inhibition.
The inhibitory activities of compounds of the invention against the GSK 3α enzyme isoform (Invitrogen), are evaluated by determining the level of activation/phosphorylation of the target peptide. The GSK3-α protein (500 ng/mL, 2.5 μL) is mixed with the test compound (2.5 μL at either 4 μg/mL, 0.4 μg/mL, 0.04 μg/mL, or 0.004 μg/mL) for 2 hr at RT. The FRET peptide (8 μM, 2.5 μL), which is a phosphorylation target for GSK3α, and ATP (40 μM, 2.5 μL) are then added to the enzyme/compound mixture and the resulting mixture incubated for 1 hr. Development reagent (protease, 5 μL) is added for 1 hr prior to detection in a fluorescence microplate reader (Varioskan® Flash, ThermoFisher Scientific).
In all cases, the site-specific protease cleaves non-phosphorylated peptide only and eliminates the FRET signal. Phosphorylation levels of each reaction are calculated using the ratio of coumarin emission (donor) over fluorescein emission (acceptor), for which high ratios indicate high phosphorylation and low ratios indicate low phosphorylation levels. The percentage inhibition of each reaction is calculated relative to non-inhibited control and the 50% inhibitory concentration (IC50 value) is then calculated from the concentration-response curve.
This method follows the same steps as Method 1 above, but utilises a shorter period of mixing of the test compound (105 minutes instead of 2 hours) with the GSK3-α protein.

[2] = test system: PBMCs; assay: LPS-induced IL-8 release in PBMC cells (assay b); type: cell-based, human; settings: Homo sapiens, PBMC; LPS-stimulated PBMCs; read-out: IC50 Values for Inhibition of Cytokine Release, PBMCs IL-8
Protocol: Peripheral blood mononuclear cells (PBMCs) from healthy subjects are separated from whole blood using a density gradient (Lymphoprep, Axis-Shield Healthcare). The PBMCs are seeded in 96 well plates and treated with compounds at the desired concentration for 2 hours before addition of 1 ng/mL LPS (Escherichia Coli 0111:B4 from Sigma Aldrich) for 24 hours under normal tissue culture conditions (37° C., 5% CO2). The supernatant is harvested for determination of IL-8 and TNFα concentrations by sandwich ELISA (Duo-set, R&D systems) and read on the fluorescence microplate reader (Varioskan® Flash, ThermoFisher Scientific). The concentration at 50% inhibition (IC50) of IL-8 and TNFα production is calculated from the dose response curve.

Chain of GSK 3α (P49840 whole entry): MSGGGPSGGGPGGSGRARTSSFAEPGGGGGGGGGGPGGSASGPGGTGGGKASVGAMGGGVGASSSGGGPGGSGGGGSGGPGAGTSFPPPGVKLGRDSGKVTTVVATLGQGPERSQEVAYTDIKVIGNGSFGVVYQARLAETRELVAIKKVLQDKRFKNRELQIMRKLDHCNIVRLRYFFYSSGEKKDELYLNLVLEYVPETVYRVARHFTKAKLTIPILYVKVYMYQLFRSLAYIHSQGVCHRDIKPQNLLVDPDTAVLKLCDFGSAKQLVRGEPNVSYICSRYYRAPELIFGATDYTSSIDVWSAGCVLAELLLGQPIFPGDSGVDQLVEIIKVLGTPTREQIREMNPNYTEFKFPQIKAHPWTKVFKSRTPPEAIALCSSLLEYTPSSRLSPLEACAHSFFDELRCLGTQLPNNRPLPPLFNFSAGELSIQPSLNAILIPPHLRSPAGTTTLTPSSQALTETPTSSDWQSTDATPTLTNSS

| Structure (SMILES) | IC50 [1] | IC50 [2] |
| --- | --- | --- |
| COc1cc(Nc2nccc(Oc3ccc(NC(=O)Nc4cc(C(C)(C)C)cc(C(=O)NCCN5CCOCC5)c4OC)c4ccccc34)n2)cc(C(=O)NCCN2CCOCC2)c1 [38(ak), 5-(tert-Butyl)-2-methoxy-3-(3-(4-((2-((3-methoxy-5-((2-morpholinoethyl)carbamoyl)-phenyl)amino)pyrimidin-4-yl)oxy)naphthalen-1-yl)ureido)-N-(2-morpholinoethyl)benzamide] | 461 nM | 1.2 nM |
| COc1cc(Nc2cc(Oc3ccc(NC(=O)Nc4cc(C(C)(C)C)cc(S(C)(=O)=O)c4OC)c4ccccc34)ccn2)ccc1C(=O)NCCN1CCOCC1 [38(ap), 4-((4-((4-(3-(5-(tert-Butyl)-2-methoxy-3-(methylsulfonyl)phenyl)ureido)naphthalen-1-yl)oxy)pyridin-2-yl)amino)-2-methoxy-N-(2-morpholinoethyl)benzamide] | > 5800 nM | 4.5 nM |
| COc1c(NC(=O)Nc2ccc(Oc3ccnc(Nc4ccccc4)c3)c3ccccc23)cc(C(C)(C)C)cc1[S+](C)[O-] (stereo not drawn) [38(b1), 1-(5-(tert-Butyl)-2-methoxy-3-(methylsulfinyl)phenyl)-3-(4-((2-(phenylamino)pyridin-4-yl)oxy)naphthalen-1-yl)urea] | > 9660 nM | 8.3 nM |
| COc1c(CNC(C)=O)cc(C(C)(C)C)cc1NC(=O)Nc1ccc(Oc2ccnc(Nc3cc(C)cc(C)c3)c2)c2ccccc12 [38(p), N-(5-(tert-Butyl)-3-(3-(4-((2-((3,5-dimethylphenyl)amino)pyridin-4-yl)oxy)naphthalen-1-yl)ureido)-2-methoxybenzyl)acetamide] | > 15800 nM | 7.2 nM |

Now from value to molecule, other results behind:

| IC50 [1] | Structure (SMILES) | IC50 [2] |
| --- | --- | --- |
| 370 nM | COCCOCCOCCNC(=O)c1cc(Nc2cc(Oc3ccc(NC(=O)Nc4cc(C(C)(C)C)cc(CC(N)=O)c4OC)c(Cl)c3Cl)ccn2)cc(OC)c1 [38(ag), 3-((4-(4-(3-(3-(2-Amino-2-oxoethyl)-5-(tert-butyl)-2-methoxyphenyl)ureido)-2,3-dichlorophenoxy)pyridin-2-yl)amino)-5-methoxy-N-(2-(2-(2-methoxyethoxy)ethoxy)ethyl)benzamide] | 0.6 nM |
| 1500 nM | COc1cc(Nc2cc(Oc3ccc(NC(=O)Nc4cc(C(C)(C)C)cc(P(C)(C)=O)c4OC)c4ccccc34)ccn2)cc(C(=O)NCCN2CC[S+]([O-])CC2)c1 [38(am), 3-((4-((4-(3-(5-(tert-Butyl)-3-(dimethylphosphoryl)-2-methoxyphenyl)ureido)naphthalen-1-yl)oxy)pyridin-2-yl)amino)-5-methoxy-N-(2-(1-oxidothiomorpholino)ethyl)benzamide] | 6.2 nM |
| > 15400 nM | COc1cccc(Nc2cc(Oc3ccc(NC(=O)Nc4cc(C(C)(C)C)cc(CC(=O)N(C)C)c4OC)c4ccccc34)ccn2)c1 [38(i), 2-(5-(tert-Butyl)-2-methoxy-3-(3-(4-((2-((3-methoxyphenyl)amino)pyridin-4-yl)oxy)naphthalen-1-yl)ureido)phenyl)-N,N-dimethylacetamide] | 11.4 nM |
| > 14500 nM | COc1cccc(Nc2cc(Oc3ccc(NC(=O)Nc4cc(C(C)(C)C)cc(CC(=O)N5CCOCC5)c4OC)c4ccccc34)ccn2)c1 [38(j), 1-(5-(tert-Butyl)-2-methoxy-3-(2-morpholino-2-oxoethyl)phenyl)-3-(4-((2-((3-methoxyphenyl)amino)pyridin-4-yl)oxy)naphthalen-1-yl)urea] | 12.5 nM |
| 472 nM | COc1c(CC(N)=O)cc(C(C)(C)C)cc1NC(=O)Nc1ccc(Oc2ccnc(Nc3ccccc3)c2)c(F)c1F [38(l), 2-(5-(tert-Butyl)-3-(3-(2,3-difluoro-4-((2-(phenylamino)pyridin-4-yl)oxy)phenyl)ureido)-2-methoxyphenyl)acetamide] | 5.9 nM |
